Reference: patent US6933305B2, “Amide compounds and use thereof” (Mitsubishi Pharma Corporation, priority 2000, dated 2005)
Counter-ions that a name gives are not always drawn.

System: not given
Test: not given
Conditions: not given

| SMILES | melting point |
| --- | --- |
| N[C@@H]1CCS(=O)(=O)c2cc(C(=O)Nc3ccncc3)ccc21 (as salt: HCl) (hydrate or solvate) [Example 7, (R)-4-amino-N-(4-pyridyl)thiochromane-7-carboxamide 1,1-dioxide] | > 250 °C (dec.) |
| N[C@@H]1CCS(=O)(=O)c2cc(C(=O)Nc3ccncc3)ccc21 (as salt: HCl) (hydrate or solvate) [Example 6, (R)-4-amino-N-(4-pyridyl)thiochromane-7-carboxamide 1,1-dioxide] | > 275 °C (dec.) |
| NC1CCS(=O)(=O)c2cc(C(=O)Nc3ccncc3)ccc21 (stereo not drawn) (as salt: HCl) (hydrate or solvate) [Example 1, 4-amino-N-(4-pyridyl)thiochromane-7-carboxamide 1,1-dioxide] | > 230 °C (dec.) |
| N[C@H]1CCSc2cc(C(=O)Nc3ccncc3)ccc21 (as salt: HCl) (hydrate or solvate) [Example 10, (S)-4-amino-N-(4-pyridyl)thiochromane-7-carboxamide] | > 260 °C (dec.) |
| NC1CCSc2cc(C(=O)Nc3ccncc3)ccc21 (stereo not drawn) (as salt: HCl) [Example 2, 4-amino-N-(4-pyridyl)thiochromane-7-carboxamide] | > 280 °C (dec.) |

Molecular target: T1, human ROCK-1 kinase domain (1 to 477 amino acids) (Homo sapiens, UniProt Q13464)
T1 construct: a vector that expresses the kinase domain (1 to 477 amino acids) of the ROCK-1 protein; His-Tag (6xHis); made in house; host or cells: Sf9 insect cells, recombinant baculovirus (pBAC-1 vector)
T1 sequence (Q13464 1-477): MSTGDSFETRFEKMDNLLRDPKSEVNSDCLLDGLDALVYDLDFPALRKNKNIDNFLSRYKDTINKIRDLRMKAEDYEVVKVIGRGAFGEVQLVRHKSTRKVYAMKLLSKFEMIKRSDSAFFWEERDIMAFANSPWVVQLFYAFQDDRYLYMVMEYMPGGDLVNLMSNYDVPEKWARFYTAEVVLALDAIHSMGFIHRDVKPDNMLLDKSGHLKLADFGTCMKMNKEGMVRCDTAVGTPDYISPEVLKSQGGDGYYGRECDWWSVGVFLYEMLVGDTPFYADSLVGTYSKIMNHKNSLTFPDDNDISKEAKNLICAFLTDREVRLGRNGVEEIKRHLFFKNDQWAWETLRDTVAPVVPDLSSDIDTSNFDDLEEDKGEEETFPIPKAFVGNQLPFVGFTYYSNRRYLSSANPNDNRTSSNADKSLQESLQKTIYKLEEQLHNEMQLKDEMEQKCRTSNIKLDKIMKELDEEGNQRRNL
Test: Rho kinase inhibitory activity (inhibitory activity on human Rho kinase)
Format: biochemical
Conditions: recombinant His-tagged human ROCK-1 kinase domain, histone substrate, 1 μM [32P]ATP, room temperature 20 min
Protocol: Rho Kinase Inhibitory Activity (Inhibitory Activity on Human Rho Kinase)
Human Rho kinase was prepared as follows. Using the following primer prepared based on the human ROCK-1 cDNA sequence reported by Ishizaki et al. (T. Ishizaki et al. EMBO J. 15, 1885-1893, 1996) and Human Placenta cDNA (Clontech, Lot. 7030086) as a template, PCR amplification was carried out.
The amplified DNA fragment was digested with Sac I and Not I, and inserted into the Sac I/Not I site of a commercially available vector for insect cell expression, pBAC-1 (Novagenn), whereby a […] human ROCK-1 protein expression vector was prepared. […]
A reaction mixture (total amount 100 μl) containing 20 mM (N-morpholino)propanesulfone acid-NaOH (pH 7.2), 0.1 mg/ml bovine serum albumin, 5 mM dithiothreitol, 10 mM β-glycerophosphoric acid, 50 μM sodium vanadate, 10 mM magnesium chloride, 1 μM [^32P] […] Then, the radioactivity incorporated into the substrate was measured using a liquid scintillation counter. […]

| SMILES | IC50 |
| --- | --- |
| N[C@H]1CCSc2cc(C(=O)Nc3ccncc3)ccc21 [Example 10, (S)-4-amino-N-(4-pyridyl)thiochromane-7-carboxamide] | 13 nM |
